Patent publication US11180510B2, “Xanthine derivatives and uses thereof as inhibitors of bromodomains of BET proteins” (Centre national de la recherche scientifique, priority 2017, dated 2021)

Legend:
[1] = system: Molm14 cells; experiment: Cell Titer-Glo cell viability assay, Molm14; format: cell-based; conditions: Homo sapiens, MOLM-14, 72 h, mean of three experiments, NA = IC50 > maximal concentration used
Procedure: The human leukemia cell line Jurkat (ATCC® TIB-152) and Molm14 was maintained in RPMI-1640 medium or MEMα, respectively and supplemented both with 10% FBS at 37° C. and 5% CO2.
In antiproliferative assays, compounds were assayed for their growth inhibiting activity towards the described cancer cell lines using the Cell Titer-Glo Luminescent Cell Viability Assay as described by the manufacturer (Promega Corporation). Briefly, 10.000 cells were plated onto 96 well-plates (white with clear bottom (3610, Corning Costar)) in 90 μL media per well immediately before assay. 10 μL of compounds were added at different concentrations (ranging from 50 μM to 6 nM) to each well and cell cultures were incubated 37° C. during 72 h. Vehicle (DMSO) was used as negative control, JQ1 (a pan-BET inhibitor) was used as positive control and all compounds were tested in constant percentage of DMSO (1%). After addition of 50 μL Cell Titer-GLO, shaking 2 minutes and incubating at room temperature 10 minutes, the Luminescence was measured using a Centro luminometer LB960 (Berthold). Dose-response curves were generated and effective dose 50 values (EC50) were calculated using non-linear regression analysis (Graph Pad Prism).

[2] = system: Jurkat cells; experiment: Cell Titer-Glo cell viability assay, Jurkat; format: cell-based; conditions: Homo sapiens, 72 h, mean of three experiments, NA = IC50 > maximal concentration used
Method in brief: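 Jurkat was grown in RPMI-1640 and Molm14 in MEMα, both with 10% FBS. Viability was read by CellTiter-Glo luminescence, and EC50 was obtained by non-linear regression of dose-response curves.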

[3] = molecular target: T1, Brd3(BD2) (Homo sapiens, UniProt Q15059); experiment: HTRF BET selectivity profile, Brd3(BD2); format: binding
T1 construct: GST tagged bromodomain proteins were purchased from BPS Bioscience; purchased BPS Bioscience
Method in brief: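 HTRF peptide-displacement assay with GST-tagged bromodomains and histone peptide, 0.5% final DMSO, incubated 3 h, 6 h or overnight at room temperature or 4 °C depending on bromodomain. 665/620 nm ratio read; inhibition scaled between DMSO and no-peptide controls, IC50 in triplicate.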

[4] = molecular target: T2, Brd3(BD1) (Homo sapiens, UniProt Q15059); experiment: HTRF BET selectivity profile, Brd3(BD1); format: binding; parameters: GST tagged bromodomain proteins were purchased from BPS Bioscience; purchased BPS Bioscience
[5] = molecular target: T2, Brd3(BD1); experiment: Thermal shift assay (BromoMELT), Brd3 (BD1); format: binding; parameters: containing the 61 GST- or His-tagged-bromodomains; purchased Reaction Biology; conditions: compound at 25 μM, cut-off +/−3.5° C.
Procedure: FIG. 3. Thermal Shift Assay (TSA) of 43c. The evaluation was performed on 61 bromodomains. A cut-off at +/−3.5° C. was set.
TSA “Bromoscan” assays (Reaction Biology) were performed in 384 well RT-PCR plate (BioRad) with a total working volume of 15 μL. The “BromoMelT™, containing the 61 GST- or His-tagged-bromodomains, SYPRO® Orange and a mix compounds as control, was purchased from Reaction Biology. For each point, 3 μL of protein (1×) and 12 μL master mix (buffer+SYPRO® Orange+compound at 25 μM or control mix compounds or DMSO (0.5%)) were mixed in plate. The plate was placed in a CFX384 RTQPC (BioRad), and heated 10 seconds at 25° C., then the temperature was increased from 25° C. to 90° C., by increment of 0.5° C. every 30 seconds. The fluorescence was recorded using FRET filters.

T2 sequence (Q15059 34-140 limits assumed): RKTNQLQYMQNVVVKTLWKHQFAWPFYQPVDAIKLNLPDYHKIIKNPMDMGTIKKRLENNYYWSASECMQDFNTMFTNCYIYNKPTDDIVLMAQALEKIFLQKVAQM
T1 sequence (Q15059 306-415 limits assumed): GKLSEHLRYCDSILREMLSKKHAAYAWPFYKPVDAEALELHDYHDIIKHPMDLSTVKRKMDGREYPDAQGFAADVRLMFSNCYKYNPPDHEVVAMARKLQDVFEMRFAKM

IC50 [1]: 6.1 µM
IC50 [2]: 17.6 µM
IC50 [3]: 2.17 µM
IC50 [4]: 0.132 µM
Ratio 3-1 vs 3-2 ([4]; selectivity Brd3(BD1) vs Brd3(BD2), HTRF IC50): 16
ΔTm at 25 µM [5]: 4.5 °C
Compound: CCn1cnc2c1c(=O)[nH]c(=O)n2Cc1ccc(CNS(=O)(=O)c2ccc(OC3CCOCC3)c(F)c2)cc1 [Compound 43c]
